# Measurements: patent US20100086931A1, “METHOD FOR ASSAYING ACTION OF ANTITUMOR AGENT USING DECREASE IN GENE EXPRESSION LEVEL AS INDEX” (Eisai R&D Management Co., Ltd., priority 2007, published 2010)
# System: peripheral blood mononuclear cells (PBMC)
# Assay: Microarray analysis (Human Genome U133 plus 2.0 array) of mRNA expression in PBMC treated with compound A
# Assay type: cell-based
# Conditions: 10 nM, ratio to control
# Text: Since it is not easy to obtain a cancer tissue clinically, the measurement of the marker in hemocytes readily obtainable in peripheral blood would be more useful. Specifically blood was taken from a normal individual (volunteer) and peripheral blood mononuclear cells were purified and treated with compound A, followed by measurement of change in expression of the gene (mRNA) with the microarray (Human Genome […] plus 2.0 array: Affymetrix).
# Ficoll-Paque PLUS solution (Amersham, 17-1440-02) was slowly added to the blood taken (with heparin added) from a healthy individual to form a layer underneath the blood (15 ml of Ficoll-Paque PLUS solution was added to 25 ml of blood). After the mixture was centrifuged at 1500 rpm for 30 min, the upper part containing platelets was removed and then a layer containing mononuclear cells was transferred to another tube. The cells were suspended in PBS and centrifuged at 1500 rpm for 5 min, followed by removal of the supernatant. After these steps were repeated twice, the cells were again suspended in RPMI1640 (containing 10% FBS). The number of the cells was then counted.
# The cells were suspended in the medium to 5×10^6 cells/ml and plated 1 ml per well of a 24-well plate. Immediately, 111 μl of compound A (ten times more concentrated than the final concentrations) was added to the well (four wells per each concentration tested). The cells were then cultured in an incubator with 5% carbon dioxide gas at 37° C. Two or four hours later, the supernatant was collected and centrifuged at 1500 rpm for five minutes. TRI reagent (SIGMA) (1 ml) was added to each well of the plate from which the supernatant was removed to harvest the cells, which was added to the centrifuged pellet to dissolve. RNA was purified in accordance with the protocol of TRI reagent. RNA was further purified using RNeasy (QIAGEN). Absorbance at 260 nm was measured to quantify an amount of RNA.
# A .cel file for each sample was obtained by using GeneChip Operating Software Ver.1.2 (Affymetrix). The RMA method was applied to ten of the .cel files obtained in the microarray experiment. Log signal intensity at a gene level was obtained by normalization of that at a probe level. By subtracting a control value from log signal intensity for each case, the log signal intensity was converted into a log signal ratio to the control. Genes were narrowed down in the basis of a log signal ratio, and a signal value. Specifically, among genes showing that the P value was 5% or less; the expression level in the untreated (control) is 100 or more by signal value; and the expression level when treated with 10 nM of compound A both for two and four hours decreased by 50% or more, genes of which expression level decreased to 25% or less upon the two-hour treatment were picked out. The software used is R2.2.1 (http://www.r-project.org/), affy package 1.8.1 (http://www.bioconductor.org).
# Among genes showing, upon the treatment with compound A, that the P value was 5% or less; the expression level in the untreated (control) is 100 or more by signal value; and the expression level when treated with 10 nM of compound A both for two and four hours decreased by 50% or more, genes of which expression level decreased to 25% or less upon the two-hour treatment, and results thereof were shown in Table 2. For each gene evaluated, gene name (Gene Name), abbreviated name (Gene Symbol), accession number (Accession), alias name (Synonym), Probe set number in Human Genome U133 Plus 2.0 Array (Human Genome U133 Plus 2.0 Array Probeset ID), the expression level upon the two-hour treatment with E7107 (E7107 (2 h)), and the expression level upon the four-hour treatment with E7107 (E7107 (4 h)) were respectively shown in Table 2.
smiles,measurement,setting,value
"CCC(O)C(C)C1OC1CC(C)(O)/C=C/C=C(\C)C1OC(=O)CC(O)CCC(C)(O)C(OC(=O)N2CCN(C3CCCCCC3)CC2)/C=C/C1C (stereo not drawn) [E7107, (8E,12E,14E)-7-((4-Cycloheptylpiperazin-1-yl)carbonyl)oxy-3,6,16,21-tetrahydroxy-6,10,12,16,20-pentamethyl-18,19-epoxytricosa-8,12,14-trien-11-olide]",AHSA2 mRNA expression level (226665_at),2 h,0.21
same,ATXN1 mRNA expression level (242230_at),2 h,0.25
same,C13orf31 mRNA expression level (228937_at),2 h,0.19
same,C15orf48 mRNA expression level (223484_at),2 h,0.06
same,CCRL2//LOC642312 mRNA expression level (211434_s_at),2 h,0.22
same,CLEC5A mRNA expression level (219890_at),2 h,0.08
same,CSF2RA mRNA expression level (210340_s_at),2 h,0.10
same,CTSL1 mRNA expression level (202087_s_at),2 h,0.21
same,DHRS9 mRNA expression level (223952_x_at),2 h,0.25
same,DOK3 mRNA expression level (223553_s_at),2 h,0.23
same,FPRL2 mRNA expression level (230422_at),2 h,0.06
same,GNA15 mRNA expression level (205349_at),2 h,0.22
same,GPR84 mRNA expression level (223767_at),2 h,0.18
same,GTF2H1 mRNA expression level (202451_at),2 h,0.18
same,HNRPA2B1 mRNA expression level (225107_at),2 h,0.23
same,HPSE mRNA expression level (222881_at),2 h,0.18
same,IQCG mRNA expression level (235347_at),2 h,0.24
same,LOC51315 mRNA expression level (233329_s_at),2 h,0.21
same,MS4A7 mRNA expression level (224358_s_at),2 h,0.24
same,NLRP12 mRNA expression level (1554952_s_at),2 h,0.23
same,NRIP3 mRNA expression level (219557_s_at),2 h,0.07
same,NSMCE4A mRNA expression level (228506_at),2 h,0.24
same,OLR1 mRNA expression level (210004_at),2 h,0.05
same,RAPH1 mRNA expression level (225188_at),2 h,0.19
same,RBBP6 mRNA expression level (212781_at),2 h,0.23
same,SLC25A19 mRNA expression level (223222_at),2 h,0.18
same,SLC43A2 mRNA expression level (228918_at),2 h,0.17
same,TNFAIP6 mRNA expression level (206026_s_at),2 h,0.19
same,TNS1 mRNA expression level (221748_s_at),2 h,0.10
same,TRAPPC4 mRNA expression level (217959_s_at),2 h,0.18
same,Transcribed locus mRNA expression level (230098_at),2 h,0.22
same,WSB1 mRNA expression level (201294_s_at),2 h,0.20
same,ZCCHC6 mRNA expression level (220933_s_at),2 h,0.17
same,AHSA2 mRNA expression level (226665_at),4 h,0.15
same,ATXN1 mRNA expression level (242230_at),4 h,0.24
same,C13orf31 mRNA expression level (228937_at),4 h,0.11
same,C15orf48 mRNA expression level (223484_at),4 h,0.01
same,CCRL2//LOC642312 mRNA expression level (211434_s_at),4 h,0.35
same,CLEC5A mRNA expression level (219890_at),4 h,0.05
same,CSF2RA mRNA expression level (210340_s_at),4 h,0.06
same,CTSL1 mRNA expression level (202087_s_at),4 h,0.13
same,DHRS9 mRNA expression level (223952_x_at),4 h,0.31
same,DOK3 mRNA expression level (223553_s_at),4 h,0.26
same,FPRL2 mRNA expression level (230422_at),4 h,0.04
same,GNA15 mRNA expression level (205349_at),4 h,0.15
same,GPR84 mRNA expression level (223767_at),4 h,0.20
same,GTF2H1 mRNA expression level (202451_at),4 h,0.07
same,HNRPA2B1 mRNA expression level (225107_at),4 h,0.20
same,HPSE mRNA expression level (222881_at),4 h,0.29
same,IQCG mRNA expression level (235347_at),4 h,0.23
same,LOC51315 mRNA expression level (233329_s_at),4 h,0.13
same,MS4A7 mRNA expression level (224358_s_at),4 h,0.04
same,NLRP12 mRNA expression level (1554952_s_at),4 h,0.26
same,NRIP3 mRNA expression level (219557_s_at),4 h,0.29
same,NSMCE4A mRNA expression level (228506_at),4 h,0.18
same,OLR1 mRNA expression level (210004_at),4 h,0.02
same,RAPH1 mRNA expression level (225188_at),4 h,0.18
same,RBBP6 mRNA expression level (212781_at),4 h,0.17
same,SLC25A19 mRNA expression level (223222_at),4 h,0.20
same,SLC43A2 mRNA expression level (228918_at),4 h,0.08
same,TNFAIP6 mRNA expression level (206026_s_at),4 h,0.06
same,TNS1 mRNA expression level (221748_s_at),4 h,0.09
same,TRAPPC4 mRNA expression level (217959_s_at),4 h,0.07
same,Transcribed locus mRNA expression level (230098_at),4 h,0.14
same,WSB1 mRNA expression level (201294_s_at),4 h,0.17
same,ZCCHC6 mRNA expression level (220933_s_at),4 h,0.08
